This note sets out measurements from patent publication US7393853B2, “Use of substituted 8-Perfluoroalkyl-6,7,8,9-tetrahydropyrimido[1,2-a] pyrimidin-4-one derivatives as therapeutic agents” (Sanofi Aventis, priority 2003, dated 2008).

Data set [1] deals with GSK3β (Homo sapiens, UniProt P49841). Briefly: Inhibitory activity against GSK3β (33P-ATP phosphorylation of prephosphorylated GS1 peptide, two protocols). It is filed as biochemical. The conditions noted are these: protocol (first or second) not specified. Here is the method:
Inhibitory Activity of the Medicament of the Present Invention Against GSK3β
Two different protocols can be used.
In a first protocol: 7.5 μM of prephosphorylated GS1 peptide and 10 μM ATP (containing 300,000 cpm of 33P-ATP) were incubated in 25 mM Tris-HCl, pH 7.5, 0.6 mM DTT, 6 mM MgCl2, 0.6 mM EGTA, 0.05 mg/ml BSA buffer for 1 hour at room temperature in the presence of GSK3beta (total reaction volume: 100 microliters).
In a second protocol: 4.1 μM of prephosphorylated GS1 peptide and 42 μM ATP (containing 260,000 cpm 33P-ATP) were incubated in 80 mM Mes-NaOH, pH 6.5, 1 mM Mg acetate, 0.5 mM EGTA, 5 mM 2-mercaptoethanol, 0.02% Tween 20, 10% glycerol buffer for 2 hours at room temperature in the presence of GSK3beta.
Inhibitors were solubilized in DMSO (final solvent concentration in the reaction medium, 1%).
The reaction was stopped with 100 microliters of a solution made of 25 g polyphosphoric acid (85% P2O5), 126 ml 85% H3PO4, H2O to 500 ml and then diluted to 1:100 before use. An aliquot of the reaction mixture was then transferred to Whatman P81 cation exchange filters and rinsed with the solution described above. Incorporated 33P radioactivity was determined by liquid scintillation spectrometry.
The phosphorylated GS-1 peptide had the following sequence: […]

Structures are written as SMILES. Counter-ions that a name gives are not always drawn.

By melting point is commonly meant the temperature, or range, at which the solid turns liquid. A word on the IC50: it is the concentration that inhibits the measured activity by half. Read a high IC50 as weaker potency in that assay.

GSK3β, sequence (P49841 whole entry, species assumed): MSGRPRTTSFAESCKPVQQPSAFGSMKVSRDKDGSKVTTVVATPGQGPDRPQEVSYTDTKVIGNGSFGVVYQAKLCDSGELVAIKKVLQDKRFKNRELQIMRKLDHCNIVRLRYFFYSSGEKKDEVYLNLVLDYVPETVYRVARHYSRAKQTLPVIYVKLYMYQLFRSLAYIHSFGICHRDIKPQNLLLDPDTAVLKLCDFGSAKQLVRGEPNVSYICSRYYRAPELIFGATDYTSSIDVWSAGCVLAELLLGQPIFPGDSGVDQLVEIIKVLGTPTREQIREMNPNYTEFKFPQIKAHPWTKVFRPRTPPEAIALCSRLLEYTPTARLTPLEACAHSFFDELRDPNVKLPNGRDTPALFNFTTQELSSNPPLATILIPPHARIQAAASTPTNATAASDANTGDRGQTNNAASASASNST

The compound `O=C(CN1c2nc(-c3ccncc3)c(F)c(=O)n2CCC1C(F)(F)F)c1ccccc1` (racemic) [compound 10, 3-Fluoro-9-(2-oxo-2-phenylethyl)-2-pyridin-4-yl-8-(trifluoromethyl)-6,7,8,9-tetrahydro-4H-pyrimido[1,2-a]pyrimidin-4-one] showed a melting point of 241 to 242 °C.

`O=c1cc(-c2ccncn2)nc2n1CCC(C(F)(F)F)N2Cc1ccccc1` (racemic) [compound 11, 9-(Phenylmethyl)-2-pyrimidin-4-yl-8-(trifluoromethyl)-6,7,8,9-tetrahydro-4H-pyrimido[1,2-a]pyrimidin-4-one] showed a melting point of 177 to 179 °C.

`O=c1cc(-c2ccncn2)nc2n1CCC(C(F)(F)F)N2CCc1ccccc1` (racemic) [compound 12, 9-(2-Phenylethyl)-2-pyrimidin-4-yl-8-(trifluoromethyl)-6,7,8,9-tetrahydro-4H-pyrimido[1,2-a]pyrimidin-4-one] came in with a melting point of 147 to 149 °C.

As to `O=C(CN1c2nc(-c3ccncn3)cc(=O)n2CCC1C(F)(F)F)c1cccc(Br)c1` (racemic) [compound 13, 9-[2-(3-Bromophenyl)-2-oxoethyl]-2-pyrimidin-4-yl-8-(trifluoromethyl)-6,7,8,9-tetrahydro-4H-pyrimido[1,2-a]pyrimidin-4-one], the melting point lay within 236 to 238 °C.

As for `O=C(CN1c2nc(-c3ccncn3)cc(=O)n2CCC1C(F)(F)F)c1cccc(F)c1` (racemic) [compound 14, 9-[2-(3-Fluorophenyl)-2-oxoethyl]-2-pyrimidin-4-yl-8-(trifluoromethyl)-6,7,8,9-tetrahydro-4H-pyrimido[1,2-a]pyrimidin-4-one], the melting point lay in the range of 245 to 247 °C.

Compound `Cc1ccc(C(=O)CN2c3nc(-c4ccncn4)cc(=O)n3CCC2C(F)(F)F)cc1` (racemic) [compound 15, 9-[2-(4-Methylphenyl)-2-oxoethyl]-2-pyrimidin-4-yl-8-(trifluoromethyl)-6,7,8,9-tetrahydro-4H-pyrimido[1,2-a]pyrimidin-4-one] came in with a melting point of 239 to 241 °C.

`O=C(CN1c2nc(-c3ccncn3)cc(=O)n2CCC1C(F)(F)F)c1ccc(F)cc1` (racemic) [compound 16, 9-[2-(4-Fluorophenyl)-2-oxoethyl]-2-pyrimidin-4-yl-8-(trifluoromethyl)-6,7,8,9-tetrahydro-4H-pyrimido[1,2-a]pyrimidin-4-one] returned a melting point of 253 to 255 °C.

For the compound `N#Cc1ccc(C(=O)CN2c3nc(-c4ccncn4)cc(=O)n3CCC2C(F)(F)F)cc1` (racemic) [compound 17, 9-[2-(4-Cyanophenyl)-2-oxoethyl]-2-pyrimidin-4-yl-8-(trifluoromethyl)-6,7,8,9-tetrahydro-4H-pyrimido[1,2-a]pyrimidin-4-one], the melting point is 201 to 203 °C.

As for `O=C(CN1c2nc(-c3ccncn3)cc(=O)n2CCC1C(F)(F)F)c1ccc(-c2ccccc2)cc1` (racemic) [compound 18, 9-(2-biphenyl-4-yl-2-oxoethyl)-2-pyrimidin-4-yl-8-(trifluoromethyl)-6,7,8,9-tetrahydro-4H-pyrimido[1,2-a]pyrimidin-4-one], the melting point was 231 to 233 °C.

The compound `O=C(CN1c2nc(-c3ccncc3)cc(=O)n2CCC1C(F)(F)F)c1ccccc1` (single isomer, unassigned; (-)) [compound 6, (−)-9-(2-Oxo-2-phenyl-ethyl)-2-(4-pyridinyl)-8-(trifluoromethyl)-6,7,8,9-tetrahydro-4H-pyrimido[1,2-a]pyrimidin-4-one hydrochloride (1:1).] came in with a half-inhibitory concentration (IC50) in data set [1] of 3 nM. That is a single-digit nanomolar value.
